Tested on: vascular injury-induced neointimal hyperplasia
Assay: Murine restenosis model: photoactivated rose bengal vascular injury of the femoral artery, histomorphometric analysis
Assay type: in vivo, C57B1/6 mice
Details: for Stenosis Index (Mean ± SE), neointima/media ratio in areas of maximum neointimal hyperplasia, 4 weeks: 4 weeks after injury, i.p., EGF-Gen 0.1 mg/kg/dose twice daily for 28 days, Gen or quinazolines 2 mg/kg/dose once per day in 10% DMSO
Protocol: Three to four week old C57 B1/6 male mice (Taconic, Germantown, N.Y.) were housed in micro-isolator cages on a 12-hour day/night cycle and kept for 2 weeks on the Paigen's cocoa butter diet of 15.8% fat, 1.25% cholesterol and 0.5% sodium cholate (Harlan Teklad, Madison, Wis., U.S.A.) to induce high plasma cholesterol levels similar to those of patients with lipid disorders.
Mice were injected with 300 microliters of a 3 mg/ml photoactivated rose bengal solution (Aldrich, Milwaukee, Wis.) in sterile PBS via the tail vein and anesthetized with ketamine/xylazine solution (100 mg ketamine/kg and 5 […]). Photoactivation of rose bengal using percutaneous irradiation with a green light source (300 Watt Xenon arced lamp equipped with a 550 nanometer broad band interference filter, Oriel Scientific, Stratford, Conn.) was performed on the shaved left leg by placing a 3.2 mm glass fiber optic light guide directly into the left femoral vein/artery for 10 minutes. The unirradiated right femoral artery served as an internal control.
Following irradiation the mice were treated for either 14 days or 28 days with intraperitoneal injections of (1) EGF-Gen conjugate or unconjugated EGF (modified EGF not conjugated to genistein) at a dose level of 0. I mg/kg/dose once in the morning and once in the evening; or (2) 2 mg/kg/dose of unconjugated genistein or derivatives of 6,7-dimethoxyquinizalone dissolved in 10% DMSO once per day; or (3) with PBS.
At the times indicated, the animals were euthanized with ketamine/xylazine and perfused with PBS followed by 4% phosphate buffered formalin. PBS and formalin were pumped through the left ventricle of the heart and allowed to exit through a 3 mm incision through the interior wall of the right ventricle. […] Serial sections were examined for areas of maximum neointimal hyperplasia for which the ratios of neointima/media (stenosis index) were determined. […]
All numeric data are shown as mean±SEM. […] Cumulative percentage plots were analyzed using Wilcoxon statistics by Statview, Abacus Concepts, Inc., Berkeley, Calif. […]

SMILES: O=c1c(-c2ccc(O)cc2)coc2cc(O)cc(O)c12 [Gen, 5,7,4'-trihydroxyisoflavone, reference compound]
- Stenosis Index (Mean ± SE), neointima/media ratio in areas of maximum neointimal hyperplasia, 4 weeks: 1.03 ± 0.18
- Stenosis Index (Mean ± SE), neointima/media ratio in areas of maximum neointimal hyperplasia, 4 weeks (listed as unconjugated Gen): 1.03±0.18
- Effect on neointimal hyperplasia / neointima formation (in words) (injured femoral arteries, EGF-Gen at less than 5% of the highest nontoxic dose): ineffective

— patent US6034053A, “EGF-isoflavone conjugates for the prevention of restenosis” (Wayne Hughes Institute, priority 1998, dated 2000)
